Laboratory results: patent publication US20230053540A1, “TREATMENT OF LIVER INJURY” (Massachusetts Institute of Technology, priority 2019, published 2023)

System: hepatocytes
Test: Seq-Well scRNA-Seq of hepatocytes after APAP overdose (signature scores, DEG vs untreated)
Assay type: in vivo, mouse

## CC(=O)Nc1ccc(O)cc1 [APAP, acetaminophen]
A6
  S100a9 pct.1: 0.399
  Saa4 pct.1: 0.437
  Sat1 pct.1: 0.47
  Scp2 pct.1: 0.866
  Sdc4 pct.1: 0.909
  Sec1412 pct.1: 0.484
  Selenbp2 pct.1: 0.609
  Serpina1a pct.1: 0.914
  Serpina3m pct.1: 0.85
  Serpina3n pct.1: 0.747
  Slc16a6 pct.1: 0.47
  Slc22a1 pct.1: 0.36
  Slc25a47 pct.1: 0.869
  Slc39a14 pct.1: 0.678
  Sod1 pct.1: 0.931
  Sqstm1 pct.1: 0.859
  Srgn pct.1: 0.284
  Srxn1 pct.1: 0.821
  St3gal1 pct.1: 0.473
  St3gal5 pct.1: 0.706
  Stat3 pct.1: 0.604
  Stk40 pct.1: 0.382
  Tiparp pct.1: 0.346
  Tmem205 pct.1: 0.695
  Tmsb4x pct.1: 0.332
  Tnfrsf1a pct.1: 0.508
  Tnfrsf12a pct.1: 0.623
  Tra2a pct.1: 0.337
  Trp53inp1 pct.1: 0.637
  Ttc36 pct.1: 0.768
  Ttr pct.1: 0.993
  Tubb2a pct.1: 0.618
  Tubb6 pct.1: 0.368
  Txnrd1 pct.1: 0.838
  Tyrobp pct.1: 0.189
  Ubc pct.1: 0.573
  Ugdh pct.1: 0.721
  Ugt2b5 pct.1: 0.847
  Ugt2b36 pct.1: 0.745
  Uox pct.1: 0.905
  Upp2 pct.1: 0.274
  Uqcr11 pct.1: 0.606
  Urah pct.1: 0.525
  Wbp1l pct.1: 0.697
  Xbp1 pct.1: 0.692
  Ywhag pct.1: 0.518
  mmu-mir-6240 pct.1: 0.413
  mt-Co2 pct.1: 0.2
  mt-Nd1 pct.1: 0.983
  mt-Nd4 pct.1: 0.964
  n-R5-8s1 pct.1: 0.308
A6 vs UT
  2-Mar avg_logFC: −0.5599
  0610005C13Rik avg_logFC: −0.4251
  0610005C13Rik pct.1: 0.427
  0610007P14Rik A6logFC: −0.257
  1110001J03Rik avg_logFC: −0.4328
  1110001J03Rik pct.1: 0.215
  1110058L19Rik A6logFC: −0.2581
  1500011K16Rik avg_logFC: −0.3296
  1500011K16Rik pct.1: 0.095
  1600014C10Rik avg_logFC: −0.4982
  1600014C10Rik pct.1: 0.167
  1700017B05Rik avg_logFC: 0.3307
  1700017B05Rik pct.1: 0.255
  2010003K11Rik avg_logFC: 0.5884
  2410015M20Rik avg_logFC: −0.4021
  2410015M20Rik pct.1: 0.344
  2810007J24Rik avg_logFC: −0.9143
  2810428I15Rik avg_logFC: −0.2631
  2810428I15Rik pct.1: 0.2
  4931406C07Rik A6logFC: −0.2544
  4931406C07Rik avg_logFC: −0.2544
  4931406C07Rik pct.1: 0.616
  4932438A13Rik A6logFC: 0.2879
  4932438A13Rik avg_logFC: 0.2879
  4932438A13Rik pct.1: 0.329
  8430408G22Rik avg_logFC: −0.5021
  2810428115Rik A6logFC: −0.2631
  Aadac avg_logFC: −0.62
  Aadat A6logFC: −0.3186
  Aass avg_logFC: 0.4775
  Abca1 avg_logFC: 0.7245
  Abcb11 A6logFC: −0.2618
  Abcb11 avg_logFC: −0.2618
  Abcb11 pct.1: 0.618
  Abcc2 A6logFC: 0.2897
  Abcd3 A6logFC: −0.2718
  Abce1 A6logFC: 0.28
  Abce1 avg_logFC: 0.28
  Abce1 pct.1: 0.437
  Abcf1 A6logFC: 0.3032
  Abcf1 avg_logFC: 0.3032
  Abcf1 pct.1: 0.458
  Abcg2 A6logFC: −0.2809
  Abcg2 avg_logFC: −0.2809
  Abcg2 pct.1: 0.294
  Abhd2 avg_logFC: 0.4844
  Acaa1a A6logFC: −0.3018
  Acaa1a avg_logFC: −0.3018
  Acaa1a pct.1: 0.475
  Acaa1b avg_logFC: −0.7328
  Acads A6logFC: −0.3242
  Acat3 A6logFC: −0.3115
  Acat3 avg_logFC: −0.3115
  Acat3 pct.1: 0.427
  Acot13 A6logFC: −0.2886
  Acsl1 avg_logFC: −0.3434
  Acsl1 pct.1: 0.752
  Acsl4 avg_logFC: 0.2985
  Acsl4 pct.1: 0.427
  Acsm1 avg_logFC: −0.3692
  Acsm1 pct.1: 0.527
  Acsm5 A6logFC: −0.2614
  Acsm5 avg_logFC: −0.2614
  Acsm5 pct.1: 0.236
  Actr3 A6logFC: 0.276
  Actr3 avg_logFC: 0.276
  Actr3 pct.1: 0.36
  Acy3 avg_logFC: −0.3137
  Acy3 pct.1: 0.131
  Adamts1 avg_logFC: 0.2826
  Adamts1 pct.1: 0.2
  Adck3 avg_logFC: −0.8761
  Adh1 avg_logFC: −1.255
  Adh4 avg_logFC: −0.5269
  Adh5 avg_logFC: −0.4914
  Adh5 pct.1: 0.649
  Adipor2 avg_logFC: −0.4738
  Adipor2 pct.1: 0.578
  Aes A6logFC: −0.2642
  Aes avg_logFC: −0.2642
  Aes pct.1: 0.535
  Aff4 avg_logFC: 0.6163
  Aff4 pct.1: 0.537
  Agmat avg_logFC: −0.4718
  Agmat pct.1: 0.339
  Agpat2 A6logFC: −0.2982
  Agpat9 avg_logFC: 0.327
  Agxt A6logFC: −0.2584
  Agxt avg_logFC: −0.2584
  Agxt pct.1: 0.601
  Akap13 avg_logFC: 0.4953
  Akap13 pct.1: 0.406
  Akr1c6 avg_logFC: −1.586
  Akr1c14 avg_logFC: −0.5186
  Akr1c14 pct.1: 0.413
  Akr1c20 avg_logFC: −0.5542
  Akr1d1 avg_logFC: −0.2789
  Akr1d1 pct.1: 0.332
  Akr1e1 A6logFC: −0.2582
  Alad avg_logFC: −0.4206
  Alad pct.1: 0.286
  Alb avg_logFC: 0.4203
  Alcam A6logFC: 0.3238
  Alcam avg_logFC: 0.3238
  Alcam pct.1: 0.396
  Aldh1a1 avg_logFC: −0.4788
  Aldh3a2 avg_logFC: −0.8342
  Aldh4a1 A6logFC: −0.2907
  Aldh4a1 avg_logFC: −0.2907
  Aldh4a1 pct.1: 0.425
  Aldh8a1 avg_logFC: −0.6837
  Aldob avg_logFC: 0.3153
  Aldob pct.1: 0.998
  Amacr avg_logFC: −0.4136
  Amacr pct.1: 0.294
  Anapc13 A6logFC: −0.3642
  Ang avg_logFC: −0.6629
  Anxa5 A6logFC: 0.3654
  Apoa2 avg_logFC: −0.5428
  Apoa4 avg_logFC: 1.368
  Apob avg_logFC: 0.5802
  Apobec1 avg_logFC: 0.3051
  Apobec1 pct.1: 0.239
  Apoc1 avg_logFC: −0.8713
  Apoc3 avg_logFC: −0.7688
  Apoe avg_logFC: −0.369
  Apof A6logFC: −0.2522
  Apof avg_logFC: −0.2522
  Apof pct.1: 0.759
  Apoh avg_logFC: −0.2623
  Apoh pct.1: 0.924
  Apol7a avg_logFC: −0.4923
  App avg_logFC: 0.3618
  App pct.1: 0.315
  Aqp9 A6logFC: −0.3109
  Arg1 avg_logFC: 0.3179
  Arg1 pct.1: 0.983
  Arhgap5 avg_logFC: 0.264
  Arhgap5 pct.1: 0.506
  Arhgdia A6logFC: 0.2563
  Arhgdia avg_logFC: 0.2563
  Arhgdia pct.1: 0.317
  Arhgef12 avg_logFC: 0.5908
  Arl4d avg_logFC: −0.5072
  Arpc1b A6logFC: 0.2597
  Arpc1b avg_logFC: 0.2597
  Arpc1b pct.1: 0.263
  Asgr1 avg_logFC: −0.3857
  Asgr1 pct.1: 0.656
  Ash1l avg_logFC: 0.2657
  Ash1l pct.1: 0.301
